Measurements published in patent publication US20100075907A1, “NEUROMEDIN U RECEPTOR AGONISTS AND USES THEREOF” (priority 2006, published 2010).
Non-standard residues stand in square brackets, D forms with d. Residues, ends and D or L forms follow the SMILES beside them. No end group written: not given here. hArg = N=C(N)NCCCC[C@H](N)C(=O)O; dNle = CCCC[C@@H](N)C(=O)O

Target: hNMUR2 (Homo sapiens, UniProt Q9GZQ4)
Assay: In vitro functional assay, HEK-hR2 cells
Type: cell-based
Parameters: expressed in transfected cells; host or cells: FLP-In CHO or HEK-293 FLP-In cells (pcDNA5); HEK-293/aeq17 lines (pcDNA3.1) were also made; % Activity: concentration or dose not given beside the values
Description: Human, mouse or rat cDNAs encoding NMUR1 or NMUR2 (as described in Howard et al. Nature 406: 70-74 (2000) were subcloned in pcDNA5 (Invitrogen) and transfected into FLP-In CHO cells and HEK-293 FLP-In cells purchased from Invitrogen (Carlsbad, Calif.) using lipofectamine (Invitrogen). The Flp-In system allows integration and expression of a particular gene of interest at a specific genomic location utilizing the Flp recombinase from yeast. The transfected cells were selected by growth in medium containing 200 μg/mL hygromycin (Invitrogen). Populations were frozen at early passage numbers, and these stocks were used for further studies. Stable clones that expressed the mRNAs were identified functionally by FLIPR as well as by RT-PCR. […] Two different rodent NMUR1 cell lines were thus generated: one with the codon as predicted from the genomic databases and another cell line with an engineered methionine (ATG) as the start codon. Additionally, stable cell lines expressing the human receptors were generated in HEK-293/aeq17 cells which stably express the aequorin gene under the CMV promoter. The human NMUR2 cDNA was cloned into pcDNA3.1 and human NMUR1 was subcloned into pIRES-puro (Clontech, Mountain View, Calif.), after transfection cells were selected in media containing G418 and either hygromycin (NMUR2) or puromycin (NMUR1).
The NMU receptors signal primarily through Gαq/11 proteins; therefore calcium mobilization assays can be utilized for functional activity.
Stable cell lines expressing human and or rodent NMUR1 or human NMUR2 receptors were plated at a density of 12,000 cells per well overnight on poly-lysine coated 384-well black-walled plates. The following day, the media was removed from the plates and the cells were subsequently loaded with Fluo-3 (Molecular Probes), a calcium sensitive dye, diluted in FLIPR buffer (1× Hank's buffered saline containing 20 mM HEPES, 0.1% BSA, 2.5 mM probenecid (Sigma) and 1.6 mM TR40). All reagents are from Invitrogen unless otherwise noted. Peptide stocks were resuspended in DMSO at a stock concentration of 2 mM and diluted in FLIPR buffer on the day of the experiment to a 4 μM working stock solution.
After a 90 minute incubation at room-temperature, cell plates were loaded onto a FLIPR (Molecular Devices) to monitor cellular fluorescence (excitation=488 nm; emission=540 nm) before and after compound/peptide addition. Eight to twelve point dose responses were tested on NMUR-expressing cell lines using FLIPR with 1 μM peptide as the highest dose. The response after peptide addition was taken as the maximum fluorescence units minus the fluorescence immediately prior to stimulation for each well. EC50 values were calculated using GraphPad Prism (San Diego, Calif.) software.
In addition to FLIPR, NMU receptor function can also be evaluated using an aequorin assay. Stable cell lines expressing the aequorin jelly fish gene can be used to report the activation of GPCRs by monitoring intracellular calcium mobilization. The objective is to identify compounds which specifically stimulate aequorin bioluminescence. Calcium-dependent luminescence is generated by the treatment of cells with the coelenterate luciferin, coelenterazine. Briefly, confluent monolayers of HEK-293/aeq 17 cells expressing hNMUR1 or hNMUR2 are “charged” with coelenterazine (Molecular Probes, Carlsbad, Calif.). Confluent T75 flasks are rinsed with media containing 300 μM glutathione and 0.1% FBS. Cells are incubated at 37° C. for one hour in 8 mL media, 0.1% FBS, 300 μM glutathione, and 20 μM coelenterazine. T75 flasks are subsequently rinsed with 6 mL ECB buffer (140 mM NaCl, 20 mM KCl, 20 mM HEPES, 5 mM glucose, 1 mM MgCl, 1 mM CaCl2, 0.1 mg/mL BSA, PH 7.3-7.4). Cells are removed from the flask in ECB buffer, pelleted, and resuspended at a density of 2×10^5 cells/mL. Agonists are added to the cells and activity is determined using a luminometer.

hNMUR2, sequence (Q9GZQ4 whole entry): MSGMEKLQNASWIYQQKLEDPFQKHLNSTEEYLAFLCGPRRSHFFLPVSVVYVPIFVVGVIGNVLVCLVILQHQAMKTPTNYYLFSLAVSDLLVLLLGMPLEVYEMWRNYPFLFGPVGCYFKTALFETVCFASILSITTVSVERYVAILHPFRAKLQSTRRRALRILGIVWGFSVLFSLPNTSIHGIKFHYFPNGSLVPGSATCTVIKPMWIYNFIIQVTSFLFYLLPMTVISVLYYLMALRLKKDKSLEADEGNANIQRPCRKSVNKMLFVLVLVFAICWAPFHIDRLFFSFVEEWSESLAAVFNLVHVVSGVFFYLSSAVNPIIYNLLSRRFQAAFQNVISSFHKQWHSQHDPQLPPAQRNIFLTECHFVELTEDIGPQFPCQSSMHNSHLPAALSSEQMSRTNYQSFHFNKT

| Compound | % Activity (Table 8, HEK-hR2, functional) [%] | IC50 (Table 8, HEK-hR2, functional) [nM] | % Activity (Table 9, HEK-hR2, functional) [%] | EC50 (Table 9, HEK-hR2, functional) [nM] |
| --- | --- | --- | --- | --- |
| H-YFGWRPRN-NH2 [Agonist C] | 0 | > 1000 | – | – |
| C[C@@H](NC(=O)[C@H](Cc1ccccc1)NC(=O)[C@@H](N)Cc1ccc(O)cc1)C(=O)N[C@@H](Cc1c[nH]c2ccccc12)C(=O)N[C@@H](CCCNC(=N)N)C(=O)N1CCC[C@H]1C(=O)N[C@@H](CCCNC(=N)N)C(=O)N[C@@H](CC(N)=O)C(N)=O [Agonist D, YF-(D-A)-WRPRN-CONH2] (H-YF[dA]WRPRN-NH2; N-terminus assumed) | 0 | > 1000 | – | – |
| CC(C)C[C@H](NC(=O)[C@H](Cc1c[nH]c2ccccc12)NC(=O)[C@@H](N)Cc1ccccc1)C(=O)N[C@@H](Cc1ccccc1)C(=O)N[C@@H](CCCNC(=N)N)C(=O)N1CCC[C@H]1C(=O)N[C@@H](CCCCNC(=N)N)C(=O)N[C@@H](CC(N)=O)C(N)=O [Agonist I, FWLFRP-(Harg)-N-CONH2] (H-FWLFRP[hArg]N-NH2) | – | – | 99 | – |
| CC(C)C[C@H](NC(=O)[C@H](Cc1c[nH]c2ccccc12)NC(=O)[C@H](Cc1ccccc1)NC(=O)CNC(=O)[C@H](CCCNC(=N)N)NC(=O)[C@H](CO)NC(=O)[C@H](CCC(N)=O)NC(=O)[C@H](CO)NC(=O)[C@H](C)NC(=O)[C@H](Cc1ccccc1)NC(=O)[C@@H]1CCCN1C(=O)[C@H](CO)NC(=O)[C@H](CCC(N)=O)NC(=O)[C@H](Cc1ccccc1)NC(=O)[C@H](CCC(=O)O)NC(=O)[C@H](CCC(=O)O)NC(=O)[C@H](CC(=O)O)NC(=O)[C@@H](NC(=O)[C@H](CCCNC(=N)N)NC(=O)[C@@H](N)Cc1ccccc1)C(C)C)C(=O)N[C@@H](Cc1ccccc1)C(=O)N[C@@H](CCCNC(=N)N)C(=O)N1CCC[C@H]1C(=O)N[C@@H](CCCCNC(=N)N)C(=O)N[C@@H](CC(N)=O)C(N)=O [Agonist O] (H-FRVDEEFQSPFASQSRGFWLFRP[hArg]N-NH2; N-terminus assumed) | – | – | 67 | 16 |
| CC(=O)N[C@@H](Cc1ccccc1)C(=O)N[C@H](CC(C)C)C(=O)N[C@@H](Cc1c[nH]c2ccccc12)C(=O)N[C@@H](CCCNC(=N)N)C(=O)N1CCC[C@H]1C(=O)N[C@@H](CCCNC(=N)N)C(=O)N[C@@H](CC(N)=O)C(N)=O [Agonist E, Ac-F-(D-L)-WRPRN-CONH2] (Ac-F[dL]WRPRN-NH2) | 1.8 | > 1000 | – | – |
| CC(C)C[C@H](NC(=O)[C@H](Cc1c[nH]c2ccccc12)NC(=O)[C@@H](N)Cc1ccccc1)C(=O)N[C@@H](Cc1ccccc1)C(=O)N[C@@H](CCCNC(=N)N)C(=O)N[C@@H](C)C(=O)N[C@@H](CCCCNC(=N)N)C(=O)N[C@@H](CC(N)=O)C(N)=O [Agonist J, FWLFRA-(Harg)-N-CONH2] (H-FWLFRA[hArg]N-NH2) | – | – | 59 | – |
| CCCC[C@@H](NC(=O)[C@H](CCCNC(=N)N)NC(=O)[C@H](C)NC(=O)[C@H](CCCNC(=N)N)NC(=O)[C@H](Cc1ccccc1)NC(=O)[C@H](CC(C)C)NC(=O)[C@H](Cc1ccccc1)NC(=O)[C@@H](N)Cc1c[nH]c2ccccc12)C(N)=O [Agonist K, WFLFRAR-(D-Nle)-CONH2] (H-WFLFRAR[dNle]-NH2) | – | – | 100 | 2 |
| H-FRVDEEFQSPFASQSRGYFWRPRN-NH2 [Agonist G] | 14 | > 1000 | – | – |
| CC(C)C[C@H](NC(=O)[C@H](Cc1c[nH]c2ccccc12)NC(=O)[C@H](Cc1ccccc1)NC(=O)CNC(=O)[C@H](CCCNC(=N)N)NC(=O)[C@H](CO)NC(=O)[C@H](CCC(N)=O)NC(=O)[C@H](CO)NC(=O)[C@H](C)NC(=O)[C@H](Cc1ccccc1)NC(=O)[C@@H]1CCCN1C(=O)[C@H](CO)NC(=O)[C@H](CCC(N)=O)NC(=O)[C@H](Cc1ccccc1)NC(=O)[C@H](CCC(=O)O)NC(=O)[C@H](CCC(=O)O)NC(=O)[C@H](CC(=O)O)NC(=O)[C@@H](NC(=O)[C@H](CCCNC(=N)N)NC(=O)[C@@H](N)Cc1ccccc1)C(C)C)C(=O)N[C@@H](Cc1ccccc1)C(=O)N[C@@H](CCCNC(=N)N)C(=O)N[C@@H](C)C(=O)N[C@@H](CCCCNC(=N)N)C(=O)N[C@@H](CC(N)=O)C(N)=O [Agonist P] (H-FRVDEEFQSPFASQSRGFWLFRA[hArg]N-NH2; N-terminus assumed) | – | – | 100 | – |
| YFWRPRN-NH2 [Agonist A, YFWRPRN-CONH2] | 0 | > 1000 | – | – |
| CCCC[C@@H](NC(=O)[C@H](CCCNC(=N)N)NC(=O)[C@@H]1CCCN1C(=O)[C@H](CCCNC(=N)N)NC(=O)[C@H](Cc1ccccc1)NC(=O)[C@H](CC(C)C)NC(=O)[C@H](Cc1c[nH]c2ccccc12)NC(=O)[C@H](Cc1ccccc1)NC(=O)CNC(=O)[C@H](CCCNC(=N)N)NC(=O)[C@H](CO)NC(=O)[C@H](CCC(N)=O)NC(=O)[C@H](CO)NC(=O)[C@H](C)NC(=O)[C@H](Cc1ccccc1)NC(=O)[C@@H]1CCCN1C(=O)[C@H](CO)NC(=O)[C@H](CCC(N)=O)NC(=O)[C@H](Cc1ccccc1)NC(=O)[C@H](CCC(=O)O)NC(=O)[C@H](CCC(=O)O)NC(=O)[C@H](CC(=O)O)NC(=O)[C@@H](NC(=O)[C@H](CCCNC(=N)N)NC(=O)[C@@H](N)Cc1ccccc1)C(C)C)C(N)=O [Agonist Q] (H-FRVDEEFQSPFASQSRGFWLFRPR[dNle]-NH2) | – | – | 97 | – |
| WALFRARN-NH2 [Agonist M] | – | – | 93 | 33 |
| CC(C)C[C@@H](NC(=O)[C@H](Cc1ccccc1)NC(=O)[C@@H](N)Cc1ccc(O)cc1)C(=O)N[C@@H](Cc1c[nH]c2ccccc12)C(=O)N[C@@H](CCCNC(=N)N)C(=O)N1CCC[C@H]1C(=O)N[C@@H](CCCNC(=N)N)C(=O)N[C@@H](CC(N)=O)C(N)=O [Agonist B, YF-(D-L)-WRPRN-CONH2] (H-YF[dL]WRPRN-NH2) | 0 | > 1000 | – | – |
| CC(C)C[C@H](NC(=O)[C@H](Cc1ccccc1)NC(=O)[C@@H](N)Cc1ccc(O)cc1)C(=O)N[C@@H](Cc1ccccc1)C(=O)N[C@@H](CCCNC(=N)N)C(=O)N1CCC[C@H]1C(=O)N[C@@H](CCCNC(=N)N)C(=O)N[C@@H](CC(N)=O)C(N)=O [NMU-8, reference compound] | – | – | 104 | – |
| H-FWLFRARN-NH2 [Agonist L] | – | – | 100 | – |
| Ac-FFRPRN-NH2 [Agonist F, Ac-FFRPRN-CONH2] | 96 | 870 | – | – |
| FALFRPRN-NH2 [Agonist N] | – | – | 100 | – |
